The values below are quoted from earlier work in article PMC8537277 (Pharmaceuticals, 2021).

The target in the series is HA receptor-binding site (RBS). Details: method as in PMID 29610325. As to conditions: ref [20]; cited from earlier work.

As to `CC(=O)N[C@H]1[C@H]([C@H](O)[C@H](O)CO)OC(O)(C(=O)O)C[C@@H]1O` (stereo partly shown) [sialic acid], the KD entry was “mM range”.
